# Values quoted from earlier work as cited in patent US6107059A, “Peptide library and screening method” (Affymax Technologies N.V., priority 1992, dated 2000).
# Target: streptavidin (Streptomyces avidinii, UniProt P22629)
# Conditions: comparison in words, no number given
# Sequence of streptavidin (P22629 25-183): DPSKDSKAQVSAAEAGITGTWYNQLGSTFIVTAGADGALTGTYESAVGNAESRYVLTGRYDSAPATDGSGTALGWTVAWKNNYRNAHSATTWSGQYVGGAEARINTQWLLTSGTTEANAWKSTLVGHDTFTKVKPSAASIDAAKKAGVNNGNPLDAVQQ
smiles,measurement,value
N=C1N[C@H]2[C@H](CS[C@H]2CCCCC(=O)O)N1 [iminobiotin],"Kd for streptavidin, compared with biotin",much lower Kd
